Results reported in PMC4874602 (ACS Infectious Diseases, 2016).
Where two headings read alike, the source gives them in different places.

Key:
[1] = in vivo; details: BALB/c and C3HeB/FeJ, mouse, 150 mg/kg
[2] = C3HeB/FeJ, single 150 mg/kg oral dose of PZA
[3] = in vivo; details: BALB/c, mouse, po, 150 mg/kg; for Kp / Cmax / half-life / Tmax: single 150 mg/kg oral dose of PZA; for half-life: t1/2, BALB/c
[4] = BALB/c, single 150 mg/kg oral dose of PZA
[5] = in vivo; details: C3HeB/FeJ, mouse, po, 150 mg/kg; for Kp / Cmax / half-life / Tmax: single 150 mg/kg oral dose of PZA; for half-life: t1/2, C3HeB/FeJ
[6] = system: THP-1 cells; details: 30 min exposure, 1 mM PZA, 0.4 mM POA
[7] = AUCUL/AUCplasma, uninvolved lung

O=C(O)c1cnccn1 [POA, pyrazinoic acid]
Tmax [1]: 30 to 60 min
AUC8h ([2]; lesion (type I)): 75.1 µg·h/g
AUC8h ([2]; uninvolved lung): 30.4 µg·h/g
AUC8h ([2]; whole lung): 43.9 µg·h/g
AUC(0-t) [3]: 127 µg·h/mL
Kp ([3]; AUCLes/AUCplasma, lesion (type III)): 0.78
Kp [3, 7]: 0.31
Kp ([3]; AUCWL/AUCplasma, whole lung): 0.42
Cmax ([3]; lesion (cellular non-necrotizing, type III)): 25000 ng/g
Cmax ([3]; plasma): 42500 ng/mL
Cmax ([3]; uninvolved lung): 10300 ng/g
Cmax ([3]; whole lung): 14700 ng/g
half-life ([3]; lesion (type III)): 49.8 min
half-life ([3]; plasma, 2.5–8 h terminal): 74.4 min
half-life ([3]; uninvolved lung): 14.4 min
half-life ([3]; whole lung): 14.4 min
Tmax ([3]; lesion (type III)): 60 min
Tmax ([3]; plasma): 30 min
Tmax ([3]; uninvolved lung): 30 min
Tmax ([3]; whole lung): 30 min
AUC8h ([4]; lesion (type III)): 99.5 µg·h/g
AUC8h ([4]; uninvolved lung): 39.0 µg·h/g
AUC8h ([4]; whole lung): 53.7 µg·h/g
AUC(0-t) [5]: 58700 ng·h/mL
Kp ([5]; AUCLes/AUCplasma, lesion (type I)): 1.28
Kp [5, 7]: 0.52
Kp ([5]; AUCWL/AUCplasma, whole lung): 0.75
Cmax ([5]; lesion (caseous necrotic granuloma, type I)): 12500 ng/g
Cmax ([5]; plasma): 14200 ng/mL
Cmax ([5]; uninvolved lung): 8300 ng/g
Cmax ([5]; whole lung): 9000 ng/g
half-life ([5]; lesion (type I)): 726 min
half-life ([5]; plasma, 2.5–8 h terminal): 144 min
half-life ([5]; uninvolved lung): 234 min
half-life ([5]; whole lung): 308 min
Tmax ([5]; lesion (type I)): 1 h
Tmax ([5]; plasma): 0.75 h
Tmax ([5]; uninvolved lung): 1 h
Tmax ([5]; whole lung): 1 h
accumulation within THP-1 cells [6]: accumulated to a very low degree
